{"source": "patent US20260256808A1", "about": "“Istaroxime-Containing Intravenous Formulation for the Treatment of Pre-Cardiogenic Shock and Cardiogenic Shock” (Windtree Therapeutics, Inc., priority 2022, published 2026)", "key": {"[1]": {"system": "patients with AHF and exhibiting pre-cardiogenic shock (SCAI stage B)", "experiment": "SEISMIC: randomized, double-blind, placebo-controlled study of 24 h istaroxime infusion in pre-cardiogenic shock", "type": "in vivo, human", "description": "Pre-CS was defined as defined as systolic blood pressure (SBP)<90 mmHg without hypoperfusion, venous lactate >2 mmol/L and/or mechanical or inotropic support. The inclusion criteria included AHF-related SCAI stage B pre-CS, 18-85 years of age, an ongoing hospitalization for AHF, left ventricular ejection fraction <40%, persistent hypotension (SBP between 75 and 90 mmHg), heart rate of 75-150 bpm and no need at time of screening or planned use for 6 h thereafter of mechanical support or intravenous therapy to increase BR According to the stage B SCAI classification, patients with clinical signs of peripheral hypoperfusion, venous lactate >2 mmol/L and/or on mechanical support or treatment with intravenous vasodilators, inotropes or vasopressors were excluded. Other exclusion criteria were concomitant or planned treatment with oral digoxin (could be randomized if the plasma concentration of digoxin at screening was <0.5 ng/ml); acute coronary syndrome or stroke within the past 3 months; coronary artery bypass graft or percutaneous coronary intervention within the past month or planned in the next month; life-threatening ventricular arrhythmia or implantable cardioverter defibrillator shock within the past month; sustained ventricular tachycardia in the last 3 months or uncontrolled arrhythmia; fever >38° C.; estimated glomerular filtration rate (eGFR)[…]; serum potassium >5.3 or <3.5 mmol/L; stroke or transient ischaemic accident within the past 3 months; and acute respiratory distress syndrome.\nThe patients were randomized centrally, using an interactive response technology, to receive istaroxime or placebo at a ratio of 1:1. Study medication was supplied in uniquely-numbered kits containing identical vials of lyophilized powder (istaroxime plus lactose), reconstituted by adding 5 ml saline to the vial. Istaroxime was administered as a continuous infusion 1.0 μg/kg/min for 24 h. The infusion rate could be decreased at the discretion of the investigator based on the development of tolerability issues (such as nausea), significant bradycardia, or greater than desired BP elevation.\nThe primary efficacy endpoint was the area under the curve representing the change in SBP from baseline, start of study drug infusion, through 6 h (SBP AUC). The secondary endpoints included SBP AUC through 24 h; changes from baseline in SBP (particularly at 6 and 24 h), diastolic blood pressure (DBP) and mean arterial pressure (MAP); changes from baseline in heart rate (HR); treatment failure score (based on death, circulatory, respiratory, or renal mechanical support or intravenous inotrope or vasopressor treatment, and changes in SBP); treatment failure defined as death or need for circulatory, respiratory, or renal mechanical support or intravenous inotrope or vasopressor treatment; increase from baseline in SBP >5% and/or >10 mmHg; changes in quality of life measured by the EuroQol 5 Dimension 5 Level (EQ-5D-5L); change from baseline to 24 h in echocardiography parameters; changes in troponin and N-terminal pro-B-type natriuretic peptide (NT-proBNP); hospital readmission for heart failure and for any cause by day 30; in-hospital worsening heart failure to day 5; and length of hospital stay. In-hospital worsening heart failure was defined as worsening signs and/or symptoms of heart failure since the previous assessment that required an intensification of intravenous therapy for heart failure or mechanical ventilatory, renal, or circulatory support. The safety endpoints were assessed throughout the study and included the incidence of adverse events; changes in vital signs and in 12-lead electrocardiogram (ECG) parameters; incidence of clinically or haemodynamically significant episodes of supraventricular or ventricular arrhythmias detected by continuous ECG monitoring; standard laboratory parameters; renal function measures; cardiac troponin I or T; and mortality through day 30. […]"}, "[2]": {"system": "patients hospitalized with ADHF and reduced LV systolic function", "conditions": "0.5-1.0-1.5 μg/kg/min, cited from earlier work"}, "patients with ADHF": {"system": "patients with ADHF", "conditions": "cited from earlier work"}, "[3]": {"conditions": "24 h Post-Treatment, adjusted least square mean change"}, "[4]": {"conditions": "24 h Post-Treatment, adjusted least square mean change, listed as istaroxime"}, "[5]": {"conditions": "24 h Post-Treatment, mean, n = 29"}}, "note": "“Also recorded” adds a separate entry of the source."}
{"compound": "C[C@]12CCC(=NOCCN)C[C@@H]1C(=O)C[C@@H]1[C@@H]2CC[C@]2(C)C(=O)CC[C@@H]12", "note": "[Istaroxime]", "values": [{"measurement": "adjusted SBP increase at 6 h", "setting": "[1]; 6 h after infusion start, (SE), p=0.045 vs placebo", "result": "12.3 (SE 1.71) mmHg"}, {"measurement": "Mitral Regurgitation Mild, number of patients", "setting": "[1]; 24 h Post Treatment", "result": 11}, {"measurement": "Mitral Regurgitation Mild, share of patients", "setting": "[1]; 24 h Post Treatment", "result": "(39%)"}, {"measurement": "Mitral Regurgitation Moderate, number of patients", "setting": "[1]; 24 h Post Treatment", "result": 16}, {"measurement": "Mitral Regurgitation Moderate, share of patients", "setting": "[1]; 24 h Post Treatment", "result": "(57%)"}, {"measurement": "Mitral Regurgitation None, number of patients", "setting": "[1]; 24 h Post Treatment", "result": 1}, {"measurement": "Mitral Regurgitation None, share of patients", "setting": "[1]; 24 h Post Treatment", "result": "(4%)"}, {"measurement": "Cardiac Index, Change from Baseline", "setting": "[1]; [3]", "result": 0.156, "unit": "L/min/m^2"}, {"measurement": "Cardiac Output, Change from Baseline", "setting": "[1]; [3]", "result": 0.23, "unit": "L/min"}, {"measurement": "E/A Ratio, Change from Baseline", "setting": "[1]; [3]", "result": "−0.380"}, {"measurement": "E/Ea Ratio, Change from Baseline", "setting": "[1]; [3]", "result": "−0.615"}, {"measurement": "Ejection Time, Change from Baseline", "setting": "[1]; [3]", "result": -2.807, "unit": "ms"}, {"measurement": "Inferior Vena Cava Diameter, Change from Baseline", "setting": "[1]; [3]", "result": "−2.503", "unit": "mm"}, {"measurement": "Left Atrial Area, Change from Baseline", "setting": "[1]; [3]", "result": "−1.817", "unit": "cm^2"}, {"measurement": "Left Atrial Volume, Change from Baseline", "setting": "[1]; [3]", "result": -7.440, "unit": "mL"}, {"measurement": "Left Ventricular Ejection Fraction, Change from Baseline", "setting": "[1]; [3]", "result": 2.678, "unit": "%"}, {"measurement": "Left Ventricular End-Diastolic Diameter, Change from Baseline", "setting": "[1]; [3]", "result": "−0.668", "unit": "mm"}, {"measurement": "Left Ventricular End-Diastolic Volume, Change from Baseline", "setting": "[1]; [3]", "result": -6.501, "unit": "mL"}, {"measurement": "Left Ventricular End-Systolic Diameter, Change from Baseline", "setting": "[1]; [3]", "result": "−0.719", "unit": "mm"}, {"measurement": "Left Ventricular End-Systolic Volume, Change from Baseline", "setting": "[1]; [3]", "result": -8.692, "unit": "mL"}, {"measurement": "Pulmonary Artery Systolic Pressure, Change from Baseline", "setting": "[1]; [3]", "result": "−7.084", "unit": "mmHg"}, {"measurement": "Stroke Volume Index, Change from Baseline", "setting": "[1]; [3]", "result": 4.001, "unit": "ml/m^2"}, {"measurement": "Tricuspid Annular Plane Systolic Excursion, Change from Baseline", "setting": "[1]; [3]", "result": 0.0860, "unit": "mm"}, {"measurement": "Cardiac Index, Change from Baseline", "setting": "[1]; [4]", "result": "0.16 ± 0.1", "unit": "L/min/m^2"}, {"measurement": "Left Atrial Area, Change from Baseline", "setting": "[1]; [4]", "result": "−1.8+0.5 cm^2"}, {"measurement": "Left Ventricular End-Diastolic Volume, Change from Baseline", "setting": "[1]; [4]", "result": "−6.5+4.9 ml"}, {"measurement": "Left Ventricular End-Systolic Volume, Change from Baseline", "setting": "[1]; [4]", "result": "−8.7+4.2 ml"}, {"measurement": "Cardiac Index, Observed", "setting": "[1]; [5]", "result": 2.1, "unit": "L/min/m^2"}, {"measurement": "Cardiac Output, Observed", "setting": "[1]; [5]", "result": 3.93, "unit": "L/min"}, {"measurement": "E/A Ratio, Observed", "setting": "[1]; [5]", "result": 1.5}, {"measurement": "E/Ea Ratio, Observed", "setting": "[1]; [5]", "result": 12.2}, {"measurement": "Ejection Time, Observed", "setting": "[1]; [5]", "result": 219.0, "unit": "ms"}, {"measurement": "Inferior Vena Cava Diameter, Observed", "setting": "[1]; [5]", "result": 19.5, "unit": "mm"}, {"measurement": "Left Atrial Area, Observed", "setting": "[1]; [5]", "result": 27.1, "unit": "cm^2"}, {"measurement": "Left Atrial Volume, Observed", "setting": "[1]; [5]", "result": 95.2, "unit": "mL"}, {"measurement": "Left Ventricular Ejection Fraction, Observed", "setting": "[1]; [5]", "result": 29.5, "unit": "%"}, {"measurement": "Left Ventricular End-Diastolic Diameter, Observed", "setting": "[1]; [5]", "result": 61.3, "unit": "mm"}, {"measurement": "Left Ventricular End-Diastolic Volume, Observed", "setting": "[1]; [5]", "result": 194.3, "unit": "mL"}, {"measurement": "Left Ventricular End-Systolic Diameter, Observed", "setting": "[1]; [5]", "result": 52.8, "unit": "mm"}, {"measurement": "Left Ventricular End-Systolic Volume, Observed", "setting": "[1]; [5]", "result": 135.7, "unit": "mL"}, {"measurement": "Pulmonary Artery Systolic Pressure, Observed", "setting": "[1]; [5]", "result": 36.8, "unit": "mmHg"}, {"measurement": "Stroke Volume Index, Observed", "setting": "[1]; [5]", "result": 28.3, "unit": "ml/m^2"}, {"measurement": "Tricuspid Annular Plane Systolic Excursion, Observed", "setting": "[1]; [5]", "result": 15.9, "unit": "mm"}, {"measurement": "adjusted change in SBP at 24 h", "setting": "[1]; 24 h after infusion start, (SE), p=0.543 vs placebo", "result": "17.1 (SE 2.36) mmHg"}, {"measurement": "change in DBP", "setting": "[1]; FIG. 3C, up to 96 h, persisting beyond the 24 h of drug administration", "result": "increases were noted"}, {"measurement": "change in MAP", "setting": "[1]; FIG. 4A, persisting beyond the 24 h of drug administration", "result": "increases were noted"}, {"measurement": "adjusted mean 6 h AUC of change in SBP from baseline", "setting": "[1]; infusion start to hour 6, istaroxime iv infusion 24 h, adjusted mean (SE), p=0.017 vs placebo", "result": "53.1 (SE 6.88) mmHg·h"}, {"measurement": "adjusted mean 24 h SBP AUC", "setting": "[1]; infusion start to hour 24, adjusted mean (SE), p=0.025 vs placebo", "result": "291.2 (SE 27.5) mmHg·h"}, {"measurement": "increase of adjusted mean 6 h SBP AUC versus placebo", "setting": "[1]; istaroxime 53.1 vs placebo 30.9 mmHg·h", "result": 72, "unit": "%"}, {"measurement": "increase of adjusted mean 24 h SBP AUC versus placebo", "setting": "[1]; istaroxime 291.2 vs placebo 208.7 mmHg·h", "result": 40, "unit": "%"}, {"measurement": "effect on heart rate / pulse", "setting": "[1]; patients with pre-cardiogenic shock", "result": "without effects on pulse; also recorded: not by increasing the heart rate"}, {"measurement": "HR during infusion", "setting": "[2]; 6-hour infusion", "result": "tended to decrease"}, {"measurement": "SBP during infusion", "setting": "[2]; 6-hour infusion", "result": "slightly increased in a dose-dependent manner"}, {"measurement": "change from baseline in PCWP", "setting": "[2]; after 6 h infusion, vs placebo, plateaued after 3 hours", "result": "dose-dependent improvements in PCWP"}, {"measurement": "E/Ea ratio", "setting": "patients with ADHF; 0.5 μg/kg/min and 1.0 μg/kg/min infused for up to 24 hours, vs placebo", "result": "an improvement in both treatment groups"}, {"measurement": "diastolic function parameters", "setting": "patients with ADHF; measured after 6 hours of infusion", "result": "significant improvements for most of the diastolic function parameters"}]}
